Assays:
[1] = tested on: CX+/CX− and Colo+/Colo− tumor cells; experiment: Light microscopical analysis of plastic adherence (anoikes); format: cell-based, human; conditions: 24 h post-treatment with granzyme B; Hsp70 membrane-positive and -negative lines
Protocol: In order to exclude apoptosis initiated by anoikes light microscopical analysis of untreated (control), camptothecin (cam) and granzyme B (grB) treated CX+/CX− and Colo+/Colo− tumor cells were performed. […] Regarding these findings we ruled out the possibility that anoikes might be a possible mechanism for the induction of apoptotic cell death in Hsp70 membrane-positive tumor sublines. It is important to note that all apoptosis assays were determined within the adherent cell population following a short term (<1 min) trypsinization.

[2] = tested on: Hsp70 membrane-negative Colo− tumor subline; experiment: Cell surface binding and uptake of granzyme B (fluorescence microscopy, flow cytometry); format: cell-based, human; conditions: data not shown
Protocol: (§1) Cells (0.5×10^6) were fixed in paraformaldehyde (1% PFA in PBS) for 10 min, and permeabilized in PBS containing BSA (0.5%), NaN3 (0.1%), and saponin (0.1%). Then permeabilized cells were incubated either with the granzyme B-phycoerythrin conjugated monoclonal antibody HC2-PE (IgG1; Hölzel Diagnosbka, Cologne, Germany) with an isotype-matched IgG1 control antibody, at 4° C. for 1 h, in the dark. Following washing cells were analysed on a FACSCalibur instrument (Becton Dickinson, Heidelberg, Germany).
(§2) Stock solutions of camptothecin (4 mg/ml, Sigma, Munich, Germany) were diluted in DMSO and stored at 4° C. in the dark. Granzyme B (6 ng/ml, Hölzel Diagnostics, Cologne, Germany) solutions were freshly prepared directly before usage. Exponentially growing cells (0.5-1.5×10^6/ml) were incubated either with camptothecin at a final concentration of 4 μg/ml or with purified, enzymatically active granzyme B (10 ng/ml, 1 μg/ml, 2 μg/ml; 4 μg/ml) (Shi et. al. (2000) Methods in Enzymology 322, 125) for 10 min, and 30 min either at 4° C. or at 37° C. After washing in RPMI-1640 medium binding and uptake was determined in nonpermeabilized and permeabilized tumor cells by flow cytometry and fluorescence microscopy on a Axioscop 25 scanning microscope (Zeiss, Jena, Germany) equipped with a 40× objective and standard filters. Images were treated by multiplicative shading correction using the software Axiovison (Zeiss Vison, Jena, Germany). Granzyme B was visualized in red by using the HC2-PE antibody.
(§3) The preceding findings posed the question whether membrane-bound Hsp70 might enable specific binding and entry of granzyme B into the cytosol. […] A light microscopical analysis of untreated CX+ and Colo+ cells (control) at 4° C. versus 37° C. is shown in the upper row of each panel (FIG. 2A). The corresponding immunofluorescence microscopy of the cells at 4° C. and 37° C. is illustrated below (control). […] (data not shown). […] (FIG. 2B, upper graph). […] However, even at the highest concentration of 4 μg/ml, granzyme B was internalized much more pronounced by Hsp70 membrane-positive as compared to Hsp70-negative tumor cells (CX−/Colo−). Potential ion channels formed by Hsp70 may play a role in the mechansim of selective granzyme B uptake in Hsp70 membrane-positive tumor cells. Indeed, a particular ion conductance pathway was observed after incorporation of vesicles derived from purified phospholipids of Hsp70 membrane-positive (CX+) tumor sublines. This was not seen in vesicles obtained from Hsp70 membrane-negative (CX−) tumor cells (data not shown).

[3] = tested on: Hsp70 membrane-negative CX− tumor subline; experiment: as above; format: cell-based, human; conditions: data not shown
Protocol: as §1, §2, §3

[4] = tested on: Hsp70 membrane-positive Colo+ tumor subline; experiment: as above; format: cell-based, human
Protocol: as §1, §2, §3

[5] = tested on: Hsp70 membrane-positive CX+ tumor subline; experiment: as above; format: cell-based, human
Colo− tumor cells = experiment: DAPI staining of nuclear DNA fragmentation; format: cell-based, human; conditions: 24 h, camptothecin 4 μg/ml or granzyme B 6 ng/ml
Protocol: (§4) DAPI-staining: Methanol/aceton fixed cells (0.1×10^6 cells/100 μl) were incubated with 0.5 μg/μl 4,6-diamino-2-phenylindole (DAPI) in PBS/glycerol (3:1), for 15 min in the dark. Following washing in PBS the cells were mounted with Fluorescent Mounting Medium (Dako, Glostrup, Denmark) and than analysed for fluorescence using a Zeiss model Axioscop 2 scanning microscope (Zeiss Jena, Germany) equipped with a 40× objective and standard filters. Apoptosis was visualized with DAPI-staining in 50 cells, each. Images were treated by multiplicative shading correction using software Axiovision (Zeiss Vision Jena, Germany).

Colo+ tumor cells = experiment: DAPI staining of nuclear DNA fragmentation; format: cell-based, human; conditions: 24 h, camptothecin 4 μg/ml or granzyme B 6 ng/ml
Protocol: as §4

CX+ tumor cells = experiment: DAPI staining of nuclear DNA fragmentation; format: cell-based, human; conditions: 24 h, camptothecin 4 μg/ml or granzyme B 6 ng/ml
Protocol: as §4

CX− tumor cells = experiment: DAPI staining of nuclear DNA fragmentation; format: cell-based, human; conditions: 24 h, camptothecin 4 μg/ml or granzyme B 6 ng/ml
Protocol: as §4

[6] = tested on: Hsp70 membrane-positive leukemic cell line K562; experiment: Annexin V-FITC apoptosis assay (flow cytometry); format: cell-based; conditions: granzyme B
Protocol: Exponentially growing tumor cells (day 1 after cell passage) were used for granzyme B, camptothecin treatment and as targets in cytotoxicity assays.
Annexin V-FITC staining: Briefly, cells were washed twice in Hepes buffer containing 5 mM CaCl2 and incubated with Annexin V-FITC (Roche) for 10 min at room temperature. Annexin V-FITC positively stained cells were measured on a FACSCalibur flow cytometer (Becton Dickinson, Heidelberg, Germany).
Similarly, a 1.3-fold and a 2.4-fold increase in the amount of Annexin V-FITC positively stained Colo+ cells were observed after 12 h and 24 h, respectively. […] A comparative Annexin V-FITC staining pattern of CX+ and CX− cells treated with granzyme B for 24 h, is illustrated in FIG. 3B. […] The amount of Annexin V-FITC positively stained K562 cells increased from 8.7% up to 16% (1.8-fold).

[7] = 1 μg/ml granzyme B, 30 min, 37° C.
[8] = 15 min at 4° C., granzyme B 2 μg/ml
[9] = temperature shift 4° C. to 37° C., 30 min

**Q.** Which “loss in plastic adherence” value [1] does the source give for granzyme B here?
**A.** neither Hsp70 membrane-positive nor -negative tumor cell lines exhibited any signs of loss in plastic adherence

**Q.** What about the “granzyme B cell surface binding (immunofluorescence)” value (“granzyme B cell surface binding” for short) ([2]; 4° C.) of the same substance?
**A.** either exhibited any granzyme B cell surface binding at 4 °C

**Q.** What about the “granzyme B uptake (immunofluorescence)” value ([2]; 37° C.) of the same substance?
**A.** nor uptake at 37 °C

**Q.** What about the “granzyme B cell surface binding” value ([3]; 4° C.) of the same substance?
**A.** either exhibited any granzyme B cell surface binding at 4 °C

**Q.** And the “granzyme B uptake (immunofluorescence)” value ([3]; 37° C.)?
**A.** nor uptake at 37 °C

**Q.** What about the “granzyme B uptake, flow cytometry of permeabilized cells” value (“granzyme B uptake, flow cytometry” below) [4, 7] of the same substance?
**A.** faint shift of the granzyme B peak to the right

**Q.** And the “granzyme B uptake, flow cytometry” value ([4]; 2 μg/ml and 4 μg/ml granzyme B)?
**A.** dose-dependent increase in granzyme B uptake

**Q.** What about the “granzyme B cell surface binding” value [4, 8] of the same substance?
**A.** typical cell surface staining, was detected

**Q.** What about the “granzyme B uptake, cytoplasmic staining (immunofluorescence)” value [4, 9] of the same substance?
**A.** resulted in uptake of granzyme B

**Q.** What about the “granzyme B uptake, flow cytometry” value [5, 7] of the same substance?
**A.** faint shift of the granzyme B peak to the right

**Q.** What about the “granzyme B uptake, flow cytometry” value ([5]; 2 μg/ml and 4 μg/ml granzyme B) of the same substance?
**A.** dose-dependent increase in granzyme B uptake

**Q.** And the “granzyme B cell surface binding” value [5, 8]?
**A.** typical cell surface staining, was detected

**Q.** What about the “granzyme B uptake, cytoplasmic staining (immunofluorescence)” value [5, 9] of the same substance?
**A.** resulted in uptake of granzyme B

**Q.** And the “nuclear DNA fragmentation (DAPI)” value (Colo− tumor cells)?
**A.** no DNA fragmentation was observed

**Q.** What about the “nuclear DNA fragmentation (DAPI)” value (Colo+ tumor cells) of the same substance?
**A.** DNA fragmentation was detected

**Q.** What about the “nuclear DNA fragmentation (DAPI)” value (CX+ tumor cells) of the same substance?
**A.** DNA fragmentation was detected

**Q.** What about the “nuclear DNA fragmentation (DAPI)” value (CX− tumor cells) of the same substance?
**A.** no DNA fragmentation was observed

**Q.** And the “amount of Annexin V-FITC positively stained K562 cells” value ([6]; untreated 8.7%, data not shown)?
**A.** 16%

**Q.** What about the “fold increase of Annexin V-FITC positively stained K562 cells” value ([6]; versus untreated) of the same substance?
**A.** 1.8 fold
